The values that follow come from publication PMC6478789, “A chemical toolbox for the study of bromodomains and epigenetic signaling” (Nature Communications, 2019).

Substitutions are numbered along the chain they refer to. Where two headings read alike, the source gives them in different places.

One experiment addresses T1, BCDIN3D (Homo sapiens, UniProt Q7Z5W3).
T1 construct: purchased DiscoverX BROMOscan (bromodomains); SGC in-house methyltransferase panel
T1 sequence (Q7Z5W3 1-292): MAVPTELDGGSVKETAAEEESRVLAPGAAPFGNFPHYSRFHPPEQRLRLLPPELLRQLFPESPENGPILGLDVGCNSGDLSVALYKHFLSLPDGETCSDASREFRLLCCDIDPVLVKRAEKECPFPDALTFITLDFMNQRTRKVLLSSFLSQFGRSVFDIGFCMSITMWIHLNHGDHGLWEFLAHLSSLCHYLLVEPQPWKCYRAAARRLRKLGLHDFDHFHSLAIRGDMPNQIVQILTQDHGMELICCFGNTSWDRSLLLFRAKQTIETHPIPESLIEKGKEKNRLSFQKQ
Nature of the experiment: Methyl transferase scintillation proximity assay. The class given is biochemical. As to conditions: average of two measurements, read-out: MTases Inhibition (%). As for the experimental part: (§1) Assays measuring lysine and arginine methyl transferase activity have been described in Scheer et al.. A radioactivity-based scintillation proximity assay was used to monitor incorporation of a tritium-labeled methyl group into the biotinylated substrate of the methyl transferase. A 10-μl reaction containing ^3H-SAM and substrate at concentrations close to the apparent Km values for each enzyme was prepared. The reactions were quenched with 10 μl of 7.5 M guanidine hydrochloride; 180 μl of 20 mM Tris buffer (pH 8.0) were added; and the mixture was transferred to a 96-well FlashPlate and incubated for 1 h. The counts per minute (CPM) was measured on a TopCount plate reader. The CPM in the absence of compound or enzyme was defined as 100% activity and background (0%), respectively, for each dataset.

The next experiment deals with T2, DNMT3A/3L (Homo sapiens, UniProt Q9Y6K1).
T2 construct: purchased DiscoverX BROMOscan (bromodomains); SGC in-house methyltransferase panel
T2 sequence (Q9Y6K1 whole entry, looked up): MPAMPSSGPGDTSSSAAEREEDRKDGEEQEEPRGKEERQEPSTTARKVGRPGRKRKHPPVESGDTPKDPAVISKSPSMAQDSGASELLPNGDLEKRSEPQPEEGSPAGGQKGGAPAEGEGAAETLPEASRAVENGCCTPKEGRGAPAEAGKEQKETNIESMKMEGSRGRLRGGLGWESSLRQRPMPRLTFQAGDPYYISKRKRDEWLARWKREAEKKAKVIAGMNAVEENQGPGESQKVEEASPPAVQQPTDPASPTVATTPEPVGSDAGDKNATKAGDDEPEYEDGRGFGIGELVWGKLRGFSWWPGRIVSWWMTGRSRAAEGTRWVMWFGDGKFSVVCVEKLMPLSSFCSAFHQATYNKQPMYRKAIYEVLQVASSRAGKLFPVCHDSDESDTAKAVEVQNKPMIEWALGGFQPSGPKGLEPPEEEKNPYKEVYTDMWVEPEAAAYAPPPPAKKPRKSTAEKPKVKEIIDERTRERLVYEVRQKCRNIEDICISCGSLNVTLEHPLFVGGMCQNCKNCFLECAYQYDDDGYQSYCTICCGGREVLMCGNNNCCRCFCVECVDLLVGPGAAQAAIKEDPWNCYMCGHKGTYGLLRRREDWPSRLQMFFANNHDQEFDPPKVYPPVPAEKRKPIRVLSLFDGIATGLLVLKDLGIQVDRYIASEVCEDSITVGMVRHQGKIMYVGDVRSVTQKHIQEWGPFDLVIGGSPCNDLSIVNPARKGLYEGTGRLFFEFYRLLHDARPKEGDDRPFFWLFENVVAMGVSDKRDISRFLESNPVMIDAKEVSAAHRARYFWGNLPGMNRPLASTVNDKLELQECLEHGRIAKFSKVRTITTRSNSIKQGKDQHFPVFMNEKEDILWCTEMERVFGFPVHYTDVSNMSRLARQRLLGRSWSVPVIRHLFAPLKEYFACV
T2 sequence (Q9UJW3 whole entry partner): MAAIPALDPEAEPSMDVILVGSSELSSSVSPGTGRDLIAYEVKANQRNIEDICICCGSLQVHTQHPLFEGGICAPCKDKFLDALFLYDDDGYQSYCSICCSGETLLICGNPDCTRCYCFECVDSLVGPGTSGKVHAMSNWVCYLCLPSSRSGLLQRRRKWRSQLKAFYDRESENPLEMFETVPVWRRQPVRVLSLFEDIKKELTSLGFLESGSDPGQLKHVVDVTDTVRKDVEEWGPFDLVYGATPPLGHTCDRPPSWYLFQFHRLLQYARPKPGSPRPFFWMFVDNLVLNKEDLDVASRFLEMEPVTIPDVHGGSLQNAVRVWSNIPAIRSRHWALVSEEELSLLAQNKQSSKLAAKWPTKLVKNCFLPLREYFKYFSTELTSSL
Description: Methyl transferase scintillation proximity assay. The experiment is classed as biochemical. As to conditions: average of two measurements, read-out: MTases Inhibition (%). The protocol:
as §1
A general note: SPA uses beads or plates that emit light when radiolabelled molecules are held near them.

The target in the next experiment is T3, PRMT1 (Homo sapiens, UniProt Q99873).
T3 construct: purchased DiscoverX BROMOscan (bromodomains); SGC in-house methyltransferase panel
T3 sequence (Q99873 whole entry): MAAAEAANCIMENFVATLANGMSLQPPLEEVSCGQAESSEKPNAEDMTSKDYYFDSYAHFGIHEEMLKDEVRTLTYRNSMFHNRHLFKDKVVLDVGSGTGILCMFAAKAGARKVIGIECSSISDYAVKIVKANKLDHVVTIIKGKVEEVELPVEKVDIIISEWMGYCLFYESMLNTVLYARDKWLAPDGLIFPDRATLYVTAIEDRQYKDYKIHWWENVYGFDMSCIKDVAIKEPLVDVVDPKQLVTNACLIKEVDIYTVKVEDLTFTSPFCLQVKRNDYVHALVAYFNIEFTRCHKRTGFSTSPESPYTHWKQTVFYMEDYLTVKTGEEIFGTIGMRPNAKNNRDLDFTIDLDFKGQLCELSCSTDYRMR
Nature of the experiment: Methyl transferase scintillation proximity assay. The class given is biochemical. To be noted: average of two measurements, read-out: MTases Inhibition (%). As for the experimental part: as §1

The next experiment addresses T4, PRMT5 (Homo sapiens, UniProt O14744).
T4 construct: purchased DiscoverX BROMOscan (bromodomains); SGC in-house methyltransferase panel
Description: Methyl transferase scintillation proximity assay. The experiment is classed as biochemical. To be noted: average of two measurements, read-out: MTases Inhibition (%). As for the experimental part:
as §1

The target in the next experiment is T5, PRMT8 (Homo sapiens, UniProt Q9NR22).
T5 construct: purchased DiscoverX BROMOscan (bromodomains); SGC in-house methyltransferase panel
T5 sequence (Q9NR22 whole entry): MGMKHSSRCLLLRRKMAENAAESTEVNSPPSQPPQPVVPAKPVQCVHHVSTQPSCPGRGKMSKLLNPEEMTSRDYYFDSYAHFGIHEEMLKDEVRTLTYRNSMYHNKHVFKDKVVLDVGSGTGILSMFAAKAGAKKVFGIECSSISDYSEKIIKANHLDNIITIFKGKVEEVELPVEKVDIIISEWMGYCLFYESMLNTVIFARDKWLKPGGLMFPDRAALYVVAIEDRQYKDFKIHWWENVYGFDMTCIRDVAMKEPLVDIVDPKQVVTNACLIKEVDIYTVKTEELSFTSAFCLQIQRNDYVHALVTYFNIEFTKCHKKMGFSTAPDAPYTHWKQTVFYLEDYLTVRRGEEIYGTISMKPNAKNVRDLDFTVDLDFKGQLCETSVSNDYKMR
Description: Methyl transferase scintillation proximity assay. The class given is biochemical. As to conditions: average of two measurements, read-out: MTases Inhibition (%). As for the experimental part: as §1

In a further experiment the target is T6, SMYD2 (Homo sapiens, UniProt Q9NRG4).
T6 construct: purchased DiscoverX BROMOscan (bromodomains); SGC in-house methyltransferase panel
T6 sequence (Q9NRG4 whole entry): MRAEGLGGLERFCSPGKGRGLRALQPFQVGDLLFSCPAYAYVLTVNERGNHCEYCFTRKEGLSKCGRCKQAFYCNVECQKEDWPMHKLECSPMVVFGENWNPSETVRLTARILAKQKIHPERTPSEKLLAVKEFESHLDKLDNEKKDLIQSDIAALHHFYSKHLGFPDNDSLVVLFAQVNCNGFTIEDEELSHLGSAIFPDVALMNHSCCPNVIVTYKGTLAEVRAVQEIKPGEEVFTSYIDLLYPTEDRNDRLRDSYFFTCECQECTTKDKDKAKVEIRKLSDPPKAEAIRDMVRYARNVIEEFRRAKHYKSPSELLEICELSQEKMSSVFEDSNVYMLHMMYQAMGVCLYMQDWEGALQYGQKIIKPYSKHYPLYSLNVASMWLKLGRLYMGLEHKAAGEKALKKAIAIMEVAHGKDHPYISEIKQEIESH
Nature of the experiment: Methyl transferase scintillation proximity assay. The experiment is classed as biochemical. As to conditions: average of two measurements, read-out: MTases Inhibition (%). As for the experimental part:
as §1

A further experiment has as its target T7, BAZ2A (Homo sapiens, UniProt Q9UIF9).
T7 sequence (Q9UIF9 1793-1897 limits assumed): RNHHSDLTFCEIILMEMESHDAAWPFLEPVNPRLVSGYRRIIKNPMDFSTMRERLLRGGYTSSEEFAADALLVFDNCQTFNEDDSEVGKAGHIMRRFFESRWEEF
Nature of the experiment: BROMOscan ligand-binding assay.

For another experiment, the target named is BRD2(1) (Homo sapiens, UniProt P25440). Nature of the experiment: BROMOscan ligand-binding assay.
Chain of BRD2(1) (P25440 74-180 limits assumed): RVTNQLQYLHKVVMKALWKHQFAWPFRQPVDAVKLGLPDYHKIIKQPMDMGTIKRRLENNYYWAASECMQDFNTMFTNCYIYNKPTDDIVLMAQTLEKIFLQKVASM
The target of the next experiment is BRD4(2) (Homo sapiens, UniProt O60885). Nature of the experiment: BROMOscan ligand-binding assay.
In another experiment the target is T8, BRD9 (Homo sapiens, UniProt Q9H8M2).
T8 sequence (Q9H8M2 136-240 limits assumed): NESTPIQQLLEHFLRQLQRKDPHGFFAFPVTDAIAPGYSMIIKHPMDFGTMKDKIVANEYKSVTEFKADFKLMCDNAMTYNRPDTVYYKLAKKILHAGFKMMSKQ
Nature of the experiment: BROMOscan ligand-binding assay.

The target in the next experiment is BRDT(1) (Homo sapiens, UniProt Q58F21). Description: BROMOscan ligand-binding assay.
For another experiment, the target named is CREBBP (Homo sapiens, UniProt Q92793). Description: BROMOscan ligand-binding assay.
Chain of CREBBP (Q92793 1085-1192 limits assumed): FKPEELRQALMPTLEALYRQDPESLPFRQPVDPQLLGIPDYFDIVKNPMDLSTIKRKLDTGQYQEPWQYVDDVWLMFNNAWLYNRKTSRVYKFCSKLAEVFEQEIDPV
The target of a further experiment is T9, TAF1(2) (Homo sapiens, UniProt P21675).
T9 sequence (P21675 1519-1628 limits assumed): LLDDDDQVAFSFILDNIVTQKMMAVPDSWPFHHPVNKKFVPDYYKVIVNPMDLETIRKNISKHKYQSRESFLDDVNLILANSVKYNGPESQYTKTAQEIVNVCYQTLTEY
Description: BROMOscan ligand-binding assay.

A further experiment concerns the target T10, TAF1L(2) (Homo sapiens, UniProt Q8IZX4).
T10 sequence (Q8IZX4 1517-1626 limits assumed): T9 sequence (P21675 1519-1628 limits assumed) with V46M, M51V, V102I, L107I
Nature of the experiment: BROMOscan ligand-binding assay.

For another experiment, the target named is T11, TRIM33(PHD,BRD) (Homo sapiens, UniProt Q9UPN9).
T11 sequence (Q9UPN9 882-1087 limits assumed): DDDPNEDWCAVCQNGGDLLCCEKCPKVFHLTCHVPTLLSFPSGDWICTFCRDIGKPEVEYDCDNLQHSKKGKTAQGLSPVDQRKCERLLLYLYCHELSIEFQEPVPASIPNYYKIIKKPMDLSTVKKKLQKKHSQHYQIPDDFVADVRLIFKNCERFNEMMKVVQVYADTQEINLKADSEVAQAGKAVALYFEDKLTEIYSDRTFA
Nature of the experiment: BROMOscan ligand-binding assay.

A further experiment has as its target T12, TRIM24 (Homo sapiens, UniProt O15164).
T12 sequence (O15164 899-1004 limits assumed): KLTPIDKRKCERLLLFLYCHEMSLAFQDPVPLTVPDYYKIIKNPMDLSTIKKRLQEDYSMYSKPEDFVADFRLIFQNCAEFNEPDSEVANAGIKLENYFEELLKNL
Nature of the experiment: BROMOscan ligand-binding assay.

Where [1] appears, read: KD, BROMOscan Gene Symbol BRDT(1).
Where [2] appears, read: KD (BROMOscan), sheet prints no unit (nM).

T4 sequence (O14744 whole entry): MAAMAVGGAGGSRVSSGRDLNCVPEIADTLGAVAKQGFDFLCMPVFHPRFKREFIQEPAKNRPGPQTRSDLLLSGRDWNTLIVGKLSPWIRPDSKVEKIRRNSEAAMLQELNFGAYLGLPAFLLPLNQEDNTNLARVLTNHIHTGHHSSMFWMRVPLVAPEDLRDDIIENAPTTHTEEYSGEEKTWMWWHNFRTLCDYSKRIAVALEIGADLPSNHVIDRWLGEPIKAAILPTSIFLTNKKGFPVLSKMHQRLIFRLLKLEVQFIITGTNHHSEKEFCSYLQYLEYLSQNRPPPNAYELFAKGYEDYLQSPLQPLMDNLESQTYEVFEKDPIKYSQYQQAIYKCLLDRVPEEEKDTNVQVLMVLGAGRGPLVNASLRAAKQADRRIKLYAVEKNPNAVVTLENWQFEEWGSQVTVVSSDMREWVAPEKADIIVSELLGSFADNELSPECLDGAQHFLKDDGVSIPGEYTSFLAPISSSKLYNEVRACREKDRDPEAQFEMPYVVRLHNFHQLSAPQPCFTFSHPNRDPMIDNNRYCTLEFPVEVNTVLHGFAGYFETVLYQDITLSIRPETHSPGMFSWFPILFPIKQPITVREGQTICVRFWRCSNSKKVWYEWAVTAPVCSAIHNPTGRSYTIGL
T4 sequence (Q9BQA1 whole entry partner): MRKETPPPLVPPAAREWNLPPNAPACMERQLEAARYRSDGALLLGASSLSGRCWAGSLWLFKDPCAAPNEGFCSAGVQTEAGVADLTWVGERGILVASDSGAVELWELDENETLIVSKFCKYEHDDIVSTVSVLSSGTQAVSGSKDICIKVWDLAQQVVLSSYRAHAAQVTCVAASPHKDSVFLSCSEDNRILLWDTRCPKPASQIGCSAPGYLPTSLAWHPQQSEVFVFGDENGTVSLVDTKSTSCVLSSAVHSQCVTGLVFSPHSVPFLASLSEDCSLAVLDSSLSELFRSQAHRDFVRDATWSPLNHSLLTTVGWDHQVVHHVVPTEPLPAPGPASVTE
Description for BAZ2A: (§2) BROMOscan is a binding assay based on the well-known KINOMEscan technology. This assay measures the binding of a DNA-tagged bromodomain to an immobilized BRD ligand. If an inhibitor is present, it will compete with the bromodomain binding to the immobilized ligand, resulting in reduction of a quantitative PCR (qPCR) signal in a dose-dependent manner.
Description for BRD2(1): as §2
Description for BRD4(2): as §2
Description for BRD9: as §2
Description for BRDT(1): as §2
Description for CREBBP: as §2
Description for TAF1(2): as §2
Description for TAF1L(2): as §2
Description for TRIM24: as §2
Description for TRIM33(PHD,BRD): as §2

For `Cc1c(NC(=O)c2cc(C(N)=O)nc3cc(F)ccc23)c(C(F)(F)F)nn1Cc1ccc(C(C)(C)C)cc1` [BAY-588], the inhibition at 10 µM at BCDIN3D is 16%; on DNMT3A/3L, -1%; at PRMT1, 0%; on PRMT5 it was 4%; on PRMT8, 3%; at SMYD2 it was 8%.

With `Cc1noc(C)c1-c1ccc2c(c1)nc(CCc1ccccc1)n2CCN1CCOCC1` [CBP30-298], the Kd worked out at 55 µM at BAZ2A (BROMOscan Gene Symbol BAZ2A); 0.78 µM at BRD2(1) (BROMOscan Gene Symbol BRD2(1)); 2.7 µM at BRD4(2) (BROMOscan Gene Symbol BRD4(2)); 12 µM on BRD9 (BROMOscan Gene Symbol BRD9); 1.8 µM at BRDT(1) (BROMOscan Gene Symbol BRDT(1)); 0.14 µM on CREBBP (BROMOscan Gene Symbol CREBBP). Moreover, the Kd at TAF1(2) (BROMOscan Gene Symbol TAF1(2)) is 5.8 µM; at TAF1L(2) (BROMOscan Gene Symbol TAF1L(2)), 17 µM; on TRIM33(PHD,BRD) (BROMOscan Gene Symbol TRIM33(PHD,Bromo.)) it was > 50000 nM; on TRIM33(PHD,BRD) (read-out: KD (BROMOscan), sheet prints no unit (nM)) it was > 30000 nM.

Turning to `CCCOc1ccn2c(C(C)=O)cc(-c3ccccc3S(C)(=O)=O)c2c1` [GSK2801], the Kd at BRD2(1) is 41 µM; at BRD4(2), 29 µM; at BRD9 (KD, BROMOscan Gene Symbol BRD9), 0.12 µM; at BRDT(1) (setting [1]), 30 µM; on CREBBP (KD, BROMOscan Gene Symbol CREBBP), 21 µM; on TAF1(2) it was 1.4 µM. The Kd at TAF1L(2) is 5.1 µM; on TRIM24 (KD, BROMOscan Gene Symbol TRIM24(Bromo.)), 24 µM; at TRIM33(PHD,BRD) (setting [2]), > 30000 nM; at TRIM33(PHD,BRD) (KD, BROMOscan Gene Symbol TRIM33(PHD,Bromo.)) it was > 100000 nM.

Take `CCC(=O)N1CCOc2c(cc(-c3ccc(OC)c(OC)c3)cc2OCC2CCCN(C)C2)C1` (centres unmarked) [I-CBP112]: the Kd at BAZ2A was found to be 70 µM; on BRD2(1), 5.7 µM; on BRD4(2) it was 16 µM; on BRD9 (KD, BROMOscan Gene Symbol BRD9) it was 25 µM; on BRDT(1) (setting [1]) it was 4.2 µM; on CREBBP (KD, CREBBP) it was 0.06 µM. In addition, the Kd is 45 µM at TAF1(2); 52 µM at TAF1L(2); 12 µM at TRIM24 (KD, TRIM24(Bromo.)); > 30000 nM on TRIM33(PHD,BRD) (setting [2]); > 100000 nM at TRIM33(PHD,BRD) (KD, TRIM33(PHD,Bromo.)).

As for `Cc1cc(=O)n(C)c2cc(N3C(=O)CC[C@H](NS(=O)(=O)CC(C)C)[C@H]3c3ccc(Cl)cc3)ccc12` [LP-99], the Kd on BAZ2A (BAZ2A) is > 50 µM; at BRD2(1) (BRD2(1)) it was > 50 µM; at BRD4(2) (BROMOscan, BRD4(2)) it was 25 µM; at BRDT(1) (BROMOscan, BRDT(1)), > 50 µM; on CREBBP (BROMOscan, CREBBP), > 50 µM; at TAF1(2) (BROMOscan, TAF1(2)), > 50 µM. Further, the Kd on TAF1L(2) (BROMOscan, TAF1L(2)) is > 50 µM; on TRIM24 (BROMOscan, TRIM24(Bromo.)), > 50 µM; on TRIM33(PHD,BRD) (BROMOscan, TRIM33(PHD,Bromo.)), > 50000 nM.

As for `COc1cc(C#N)ccc1S(=O)(=O)Nc1ccc2c(c1)cc(C)c(=O)n2C` [NI 57], the Kd is > 50 µM at BAZ2A (BAZ2A); 5.9 µM at BRD2(1) (BRD2(1)); > 50 µM at BRD4(2) (BRD4(2)); 0.16 µM at BRD9 (BRD9); 4.8 µM on BRDT(1) (BRDT(1)); 13 µM on CREBBP (CREBBP). For the same molecule, the Kd on TAF1(2) (TAF1(2)) is 4.9 µM; at TAF1L(2) (TAF1L(2)), 5.5 µM; at TRIM24 (TRIM24(Bromo.)) it was 1.6 µM; on TRIM33(PHD,BRD) (TRIM33(PHD,Bromo.)), > 50000 nM.

What is called inhibition is the relative decrease from the control value, in per cent. As usually defined, the Kd is the constant that tells how readily two partners part at equilibrium.
